Assay results reported in ChEMBL document CHEMBL2375216, “Molecular design, synthesis and biological evaluation of cyclic imides bearing benzenesulfonamide fragment as potential COX-2 inhibitors. Part 2” (Bioorg Med Chem Lett, 2013).

How the values were obtained:
[1] = biological target: T1, Prostaglandin G/H synthase 1 (Ovis aries, UniProt P05979); experiment: Inhibition of ovine COX1-mediated prostaglandin alpha production by enzyme immuno assay
T1 sequence (P05979 whole entry): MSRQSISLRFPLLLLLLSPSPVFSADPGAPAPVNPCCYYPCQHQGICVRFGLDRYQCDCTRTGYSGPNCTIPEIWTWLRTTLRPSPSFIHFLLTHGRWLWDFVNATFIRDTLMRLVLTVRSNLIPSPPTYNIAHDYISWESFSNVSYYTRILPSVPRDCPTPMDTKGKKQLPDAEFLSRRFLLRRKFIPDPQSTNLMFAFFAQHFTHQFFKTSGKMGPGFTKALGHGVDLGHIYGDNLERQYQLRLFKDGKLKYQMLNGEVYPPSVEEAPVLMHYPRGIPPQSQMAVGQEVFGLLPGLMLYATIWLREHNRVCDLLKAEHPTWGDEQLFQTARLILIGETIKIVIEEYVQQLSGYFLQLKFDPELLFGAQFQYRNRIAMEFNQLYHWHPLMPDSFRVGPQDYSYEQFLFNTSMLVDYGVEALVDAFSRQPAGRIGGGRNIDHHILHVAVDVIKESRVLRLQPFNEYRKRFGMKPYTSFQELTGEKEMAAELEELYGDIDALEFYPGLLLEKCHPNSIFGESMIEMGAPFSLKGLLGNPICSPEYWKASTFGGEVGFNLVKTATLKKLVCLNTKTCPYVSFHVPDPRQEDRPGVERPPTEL

[2] = test system: Rattus norvegicus; experiment: Antiinflammatory activity in ip dosed Sprague-Dawley rat assessed as inhibition of carrageenan-induced paw edema measured after 2 hrs plethysmometric analysis; assay type: functional

SMILES	IC50 [1]	ED50 [2]
NS(=O)(=O)c1ccc(N2C(=O)[C@H]3CC=CC[C@H]3C2=O)cc1	> 100 µM	
O=C(O)c1ccc(N2C(=O)c3c(Cl)c(Cl)c(Cl)c(Cl)c3C2=O)cc1	> 100 µM	
O=C(O)c1ccc(N2C(=O)[C@H]3CC=CC[C@H]3C2=O)cc1	> 100 µM	
NS(=O)(=O)c1ccc(N2C(=O)c3ccc([N+](=O)[O-])cc3C2=O)cc1	> 100 µM	101 mg/kg
NS(=O)(=O)c1ccc(N2C(=O)c3cc(Cl)c(Cl)cc3C2=O)cc1	> 100 µM	111 mg/kg
NS(=O)(=O)c1ccc(N2C(=O)c3cccc4cccc(c34)C2=O)cc1	> 100 µM	210 mg/kg
CC(C)(C)c1ccc2c(c1)C(=O)N(c1ccc(S(N)(=O)=O)cc1)C2=O	> 100 µM	
NS(=O)(=O)c1ccc(CN2C(=O)c3cc(Cl)c(Cl)cc3C2=O)cc1	> 100 µM	100 mg/kg
NS(=O)(=O)c1ccc(CN2C(=O)[C@H]3CC=CC[C@H]3C2=O)cc1	> 100 µM	
NS(=O)(=O)c1ccc(N2C(=O)c3ccccc3C2=O)cc1	> 100 µM	
O=C(O)c1ccc(N2C(=O)CCC2=O)cc1	> 100 µM	
NS(=O)(=O)c1ccc(CN2C(=O)c3nccnc3C2=O)cc1	> 100 µM	126 mg/kg
O=C(O)c1ccc(N2C(=O)c3ccccc3C2=O)cc1	> 100 µM	
O=C(O)c1ccc(N2C(=O)c3ccc([N+](=O)[O-])cc3C2=O)cc1	> 100 µM	
Cc1ccc2c(c1)C(=O)N(Cc1ccc(S(N)(=O)=O)cc1)C2=O	> 100 µM	
NS(=O)(=O)c1ccc(N2C(=O)c3c(Cl)c(Cl)c(Cl)c(Cl)c3C2=O)cc1	> 100 µM	

SMILES	IC50 [1]	ED50 [2]
NS(=O)(=O)c1ccc(CN2C(=O)c3ccc([N+](=O)[O-])cc3C2=O)cc1	> 100 µM	72.4 mg/kg
NS(=O)(=O)c1ccc(N2C(=O)c3nccnc3C2=O)cc1	> 100 µM	160 mg/kg
O=C(O)c1ccc(N2C(=O)c3cccc4cccc(c34)C2=O)cc1	> 100 µM	
NS(=O)(=O)c1ccc(CN2C(=O)c3c(Cl)c(Cl)c(Cl)c(Cl)c3C2=O)cc1	> 100 µM	
NS(=O)(=O)c1ccc(CN2C(=O)c3cccc4cccc(c34)C2=O)cc1	> 100 µM	200 mg/kg
O=C(O)c1ccc(N2C(=O)c3cc(Cl)c(Cl)cc3C2=O)cc1	> 100 µM	
NS(=O)(=O)c1ccc(N2C(=O)CCC2=O)cc1	> 100 µM	
Cc1ccc2c(c1)C(=O)N(c1ccc(C(=O)O)cc1)C2=O	> 100 µM	
Cc1ccc2c(c1)C(=O)N(c1ccc(S(N)(=O)=O)cc1)C2=O	> 100 µM	
Cc1ccc(-c2cc(C(F)(F)F)nn2-c2ccc(S(N)(=O)=O)cc2)cc1 [CELECOXIB]		83.4 mg/kg
CC(C)(C)c1ccc2c(c1)C(=O)N(c1ccc(C(=O)O)cc1)C2=O	> 100 µM	
NS(=O)(=O)c1ccc(CN2C(=O)CCC2=O)cc1	> 100 µM	
O=C(O)c1ccc(N2C(=O)c3nccnc3C2=O)cc1	> 100 µM	
CC(C)(C)c1ccc2c(c1)C(=O)N(Cc1ccc(S(N)(=O)=O)cc1)C2=O	> 100 µM	
NS(=O)(=O)c1ccc(CN2C(=O)c3ccccc3C2=O)cc1	> 100 µM	
